The values below come from paper PMC6010070, “Antinociceptive potency of a fluorinated cyclopeptide Dmt-c[D-Lys-Phe-p-CF3-Phe-Asp]NH2” (Journal of Enzyme Inhibition and Medicinal Chemistry, 2018).

SMILES strings stand for the structures. Bridge positions count the residues as written; N and C are the ends. Square brackets hold non-standard residues; d marks the D form. Peptide text beside a SMILES is read from it. Phe(4-CF3) = N[C@@H](Cc1ccc(C(F)(F)F)cc1)C(=O)O; Dmt = Cc1cc(O)cc(C)c1C[C@H](N)C(=O)O

Holding throughout (format): in vivo
Assay [1] has as its system Male balb/c mice. Kind of assay: Prevention mouse model of TNBS-induced colitis (macroscopic damage, MPO activity). The note with it: 1 mg/kg i.p. once daily. As to the method: (§1) Male balb/c mice (Animal Facility of Nofer Institute of Occupational Medicine, Lodz, Poland) weighing 22–25 g were used to determine the anti-inflammatory and anti-nociceptive activity of cyclopeptides after i.p. administration. All procedures and protocols used in this study were approved by the Local Ethical Committee for Animal Research (protocol number: 20/ŁB708/2014, 26 May 2014). The study was carried out in accordance with the recommendations described in the Guide for the Care and Use of Laboratory Animals of the Medical University of Lodz, Poland. All experimental procedures were performed in accordance with the current guidelines for the care of laboratory animals (including the use of the 3Rs procedures) and in accordance with the ARRIVE guidelines.
(§2) The experimental colitis was induced by intracolonic (i.c.) administration of 2,4,6-trinitrobenzenesulfonic acid (TNBS). Mice were anesthetized with isoflurane (Aerrane, Baxter, Deerfield, IL) and TNBS at the dose of 4 mg per mouse (dissolved in 30% EtOH in saline) in the final volume of 150 µl, was injected into the colon through a catheter inserted 3 cm proximally from the anus. Mice were then maintained in an inclined position for 1 min to ensure the proper distribution of the inductor in the colon. Next, recovery was allowed with food and water supplied. Control animals received vehicle alone (30% ethanol in saline; TNBS replaced with equivolume water).
In the prevention mouse model of colitis, F-81 was injected intraperitoneally (i.p.) at the dose of 1 mg/kg in saline, in the volume of 100 µl, once daily, for 3 days, 15 min prior to TNBS administration. Mice were weighted daily and monitored for clinical symptoms of colitis, including diarrhoea and bloody stool. On day 4, mice were sacrificed by rapid cervical dislocation and the macroscopic damage score was assessed.
(§3) To perform the macroscopic damage score, the colon was removed immediately after euthanasia, opened longitudinally, rinsed with phosphate buffered saline (PBS), and examined using an established semiquantitative scoring system by adding individual scores for ulcer, colonic shortening, wall thickness, and the presence of haemorrhage, faecal blood, and diarrhoea, as described before. For scoring ulcer and colonic shortening the following scale was used: ulcer: 0.5 points for each 0.5 cm; shortening of the colon: 1 point for >15%, 2 points for >25% (based on a mean length of the colon in untreated mice). The wall thickness was measured in millimetres, a thickness of n mm corresponded to n scoring points. The presence of haemorrhage, faecal blood, or diarrhoea increased the score by 1 point for each additional feature.
The colon fragments (20–30 mg) were gently isolated from mice after total macroscopic damage score assessment, immediately washed with PBS, and homogenized in hexadecyltrimethylammonium bromide (HTAB) buffer (0.5% HTAB in 50 mM potassium phosphate buffer, pH 6.0; 50 mg of tissue/ml) using Ika Ultra Turrax Disperser T25 Digital 2 (Sigma Aldrich, Poznan, Poland). The homogenates were centrifuged (20 min, 13,200g, 4 °C) and the supernatants were transferred to the new test tubes. Then, 7 µl portions of supernatants were added on a 96-well plate, followed by 200 µl of 50 mM potassium phosphate buffer (pH = 6.0), containing 0.167 mg/ml of O-dianisidine hydrochloride and 0.05 µl of 1% H2O2. The absorbance was measured at 450 nm after 30 and 60 s (iMARK Microplate Reader, Biorad, UK). All measurements were done in triplicates.
(§4) The MPO activity was expressed in units/g of a wet tissue. One unit is determined as a quantity of enzyme able to convert 1 µmol of H2O2 to water in 1 min at room temperature. MPO activity units were calculated from the standard curve using purified peroxidase enzyme.

The subject of assay [2] is Male balb/c mice. Nature of the assay: Histology, microscopic total damage score of distal colon (prevention model of colitis). Particulars: 1 mg/kg. As to the method: Distal colon sections from the preventive mouse model of colitis were stapled flat, mucosal side-up, onto cardboard strips and fixed in 10% formalin for 24 h at 4 °C. Samples were dehydrated, embedded in paraffin, sectioned at 5 µm, and mounted onto slides. The sections were then stained with haematoxylin and eosin and Motic AE31 microscope (Ted Pella, Sweden) photographs were taken using a digital imaging system consisting of a digital camera (Moticam 2300, Ted Pella, Sweden) and image analysis software (Motic Images Plus 2.0, Germany).
The microscopic total damage score was assessed using the following parameters: the goblet cell depletion (presence = 1, absence = 0), crypt abscesses (presence = 1, absence = 0), the destruction of mucosal architecture (normal = 1, moderate = 2, extensive = 3), the extent of muscle thickening (normal =1, moderate = 2, extensive = 3), and the presence and degree of cellular infiltration (normal = 1, moderate = 2, transmural = 3).

The test system of assay [3] is Male balb/c mice. Kind of assay: Semi-chronic model of TNBS-induced colitis (macroscopic damage, MPO activity). The procedure: as §1, §2
In the semi-chronic model, the curative potential of F-81 was tested. TNBS was administered on day 0 and from day 3 to day 6 the F-81 treatment (1 mg/kg in saline, 100 µl, i.p) was performed. On day 7, mice were sacrificed and the evaluation of colonic damage was performed.
as §3
The colon fragments (20–30 mg) were gently isolated from mice after total macroscopic damage score assessment, immediately washed with PBS, and homogenized in hexadecyltrimethylammonium bromide (HTAB) buffer (0.5% HTAB in 50 mM potassium phosphate buffer, pH 6.0; 50 mg of tissue/ml) using Ika Ultra Turrax Disperser T25 Digital 2 (Sigma Aldrich, Poznan, Poland). The homogenates were centrifuged (20 min, 13,200g, 4 °C) and the supernatants were transferred to the new test tubes. […] The absorbance was measured at 450 nm after 30 and 60 s (iMARK Microplate Reader, Biorad, UK). […]
as §4

Turning to `Cc1cc(O)cc(C)c1C[C@H](N)C(=O)N[C@@H]1CCCCNC(=O)C[C@@H](C(N)=O)NC(=O)[C@H](Cc2ccc(C(F)(F)F)cc2)NC(=O)[C@H](Cc2ccccc2)NC1=O` [Peptide F-81, Dmt-c[D-Lys-Phe-p-CF3-Phe-Asp]NH2] (H-[Dmt][dK]F[Phe(4-CF3)]D-NH2; lactam 2-5 (inferred)), the Macroscopic damage score was 4.07 with Male balb/c mice [1] (3 days, TNBS group 5.83) and 2.18 ± 0.40 in the assay with Male balb/c mice [3] (1 mg/kg i.p. day 3 to day 6, TNBS group 4.15 ± 0.54). The same compound registered an Intestinal wall thickness in the assay with Male balb/c mice [1] (TNBS group 1.08 ± 0.12, no difference) of 0.95 ± 0.07 mm. For the same compound, the Ulcer score with Male balb/c mice [1] (TNBS group 2.06 ± 0.22) was determined as 1.43 ± 0.17; in the assay on Male balb/c mice [3] (1 mg/kg i.p., TNBS group 1.30 ± 0.12), 0.92 ± 0.83. Besides, the Colon width in the assay on Male balb/c mice [1] (TNBS group 7.91 ± 0.23) came out at 6.09 ± 0.53. Moreover, the Colon length in the assay on Male balb/c mice [1] (TNBS group 8.01 ± 0.39, no difference) came out at 8.23 ± 0.24. The Inflammation area in the assay with Male balb/c mice [1] (TNBS group 24.42 ± 2.92) came out at 19.56 ± 2.16; in the assay with Male balb/c mice [3] (1 mg/kg i.p., TNBS group 18.49 ± 3.95) it was 12.23 ± 1.56. The MPO activity with Male balb/c mice [1] (colon tissue, TNBS group 11.82 ± 1.72) is recorded as 3.65 ± 0.87 units/g of a wet tissue; with Male balb/c mice [3] (colon tissue, 1 mg/kg i.p., TNBS group 8.26 ± 0.15), 7.88 ± 0.24 units/g of a wet tissue. In addition, in the assay on Male balb/c mice [2], the Microscopic score entry is listed as “significantly improved”. The “Colon thickness, width, or length versus TNBS-treated group” value in the assay on Male balb/c mice [3] (1 mg/kg i.p.) was “No differences”.
